Consider 7 molecules from patent US9790252B2, “2-fluorinated riboses and arabinoses and methods of use and synthesis” (CORNELL UNIVERSITY, priority 2009, dated 2017).

In one data set the test system is HEK293 cells. The data set can be described thus: Toxicity to HEK293 cells (MTT). Type of data set: cell-based. The settings on record: for 100 μM absorbance / 100 μM relative viability: HEK293, 100 μM; for 100 μM absorbance / 100 μM relative viability / 500 μM absorbance / 500 μM relative viability: 12 hours; for 100 μM absorbance / 500 μM absorbance: 570 nm; for 100 μM relative viability / 500 μM relative viability: control = 1; for 500 μM absorbance / 500 μM relative viability: HEK293, 500 μM. The procedure:
1. HEK293 cells were seeded in 96-well plate at a density of 25,000 cells/well the day before the experiment starts;
2. After the cells reach 50˜60% confluency, media was taken out, and 100 μL of fresh media was added to each well;
3. F-derivatives were plated at 100 and 500 μM (in duplicates) concentrations;
4. After 12 hours' incubation at 37° C., the media was taken out, 100 μL of fresh media was added to each well along with 20 μL of 5 mg/mL of MTT solution (in PBS);
5. After 1.5 hours' incubation at 37° C., media was taken out and 100 μL of DMSO was added to each well, the plate was mixed on shaker for 5 mins;
Absorbance was measured at 570 nm.
Assay for Determining Toxicity to HEK293 and Neuro2A Cells • 1. HEK293 and Neuro2A cells were seeded in 96-well plate at a density of 25,000 cells/well the day before the experiment starts; • 2. After the cells reach 50˜60% confluency, media was taken out, and 100 μL of fresh media was added to each well; • 3. Cl-derivatives were plated at 100 and 500 μM (in duplicates) concentrations; • 4. After 12 hours' incubation at 37° C., the media was taken out, 100 μL of fresh media was added to each well along with 20 μL of 5 mg/mL of MTT solution (in PBS); • 5. After 2 hours' incubation at 37° C., media was taken out and 100 μL of DMSO was added to each well, the plate was mixed on shaker for 5 mins; • 6. Absorbance was measured at 570 nm.

A further data set concerns the target T1, SirT1 (Homo sapiens, UniProt Q96EB6).
T1 sequence (Q96EB6 1-747): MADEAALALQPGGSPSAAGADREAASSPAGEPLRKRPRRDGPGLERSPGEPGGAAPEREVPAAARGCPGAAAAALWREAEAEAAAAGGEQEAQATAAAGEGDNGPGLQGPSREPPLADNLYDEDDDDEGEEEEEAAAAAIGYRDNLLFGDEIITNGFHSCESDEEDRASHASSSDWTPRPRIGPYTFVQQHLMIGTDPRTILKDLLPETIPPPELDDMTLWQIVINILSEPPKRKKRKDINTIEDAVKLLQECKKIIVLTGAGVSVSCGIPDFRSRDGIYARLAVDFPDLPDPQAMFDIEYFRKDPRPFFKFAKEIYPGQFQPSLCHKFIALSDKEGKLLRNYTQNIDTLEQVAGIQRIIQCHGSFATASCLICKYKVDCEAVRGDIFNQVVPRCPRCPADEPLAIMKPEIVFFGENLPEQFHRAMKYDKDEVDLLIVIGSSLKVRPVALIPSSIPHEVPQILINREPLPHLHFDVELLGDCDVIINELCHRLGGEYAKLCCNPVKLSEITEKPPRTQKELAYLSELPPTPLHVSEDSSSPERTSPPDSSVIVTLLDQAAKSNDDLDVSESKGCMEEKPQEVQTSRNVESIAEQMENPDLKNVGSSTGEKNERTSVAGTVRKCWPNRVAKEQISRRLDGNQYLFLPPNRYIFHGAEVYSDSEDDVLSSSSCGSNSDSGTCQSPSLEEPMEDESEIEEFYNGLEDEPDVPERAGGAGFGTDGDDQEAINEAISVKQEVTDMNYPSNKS
As to the kind of experiment: SirT1 activity assay (HPLC of 2′- and 3′-AADPR). Format: biochemical. The settings on record: 200 μM NAD+, 100 μM JB12 peptide; for SirT1 Ki / pKi: pH 7.5, 30 mins at 37° C.; for SirT1 inhibition (in words): pH 7.5. The procedure:
Reactions containing 200 μM NAD^+, 100 μM JB12 peptide, and 100 mM phosphate buffer at pH 7.5, with varying concentrations of 2′-deoxy-2′-fluoro-nucleosides or nucleotides were initiated by addition of SirT1 enzyme to a concentration of 12.9 μM. Reactions were incubated for 30 mins at 37° C. and quenched by addition of trifluoroacetic acid to pH 2. After centrifugation to remove precipitates, reactions were injected on HPLC for activity analysis. Production of 2′- and 3′-AADPR were analyzed at 260 nm.
SirT1 Activity Assay: Reactions containing 200 μM NAD^+, 100 μM JB12 peptide, and 100 mM phosphate buffer at pH 7.5, with varying concentrations of 2′-deoxy-2′-chloro-nucleosides were initiated by addition of SirT1 enzyme to a concentration of 12.9 μM. Reactions were incubated for 30 mins at 37° C. and quenched by addition of trifluoroacetic acid to pH 2. After centrifugation to remove precipitates, reactions were injected on HPLC for activity analysis. Production of 2′- and 3′-AADPR were analyzed at 260 nm.

The next data set has as its target T2, CD38 (Homo sapiens, UniProt P28907).
T2 sequence (P28907 1-300): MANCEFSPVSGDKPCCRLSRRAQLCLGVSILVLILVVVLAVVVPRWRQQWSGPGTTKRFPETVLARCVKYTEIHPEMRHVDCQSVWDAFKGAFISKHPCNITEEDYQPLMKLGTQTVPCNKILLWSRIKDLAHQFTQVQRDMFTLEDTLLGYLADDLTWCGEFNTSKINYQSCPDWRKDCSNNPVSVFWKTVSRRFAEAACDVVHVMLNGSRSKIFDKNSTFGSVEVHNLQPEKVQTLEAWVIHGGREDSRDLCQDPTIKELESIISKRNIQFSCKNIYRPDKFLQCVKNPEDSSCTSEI
As to the kind of experiment: CD38 activity assay (NGD+ turnover, 295 nm absorbance). Type of data set: biochemical. The procedure:
CD38 (500 nM) in 100 mM phosphate buffer at pH 7.5 was incubated with various concentrations of 2′-deoxy-2′-fluoro-nucleosides and nucleotides for 30 mins at room temperature. 35 μL of the enzyme inhibitor solution was added to a cuvette containing 1 mL of 100 mM phosphate buffer at pH 7.5, containing 200 μM NGD^+. Reaction progress upon initiation by enzyme addition was monitored by 295 nm absorbance.
CD38 Activity Assay: CD38 (500 nM) in 100 mM phosphate buffer at pH 7.5 was incubated with various concentrations of 2′-deoxy-2′-chloro-nucleosides were for 30 mins at room temperature. 35 μL of the enzyme inhibitor solution was added to a cuvette containing 1 mL of 100 mM phosphate buffer at pH 7.5, containing 200 μM NGD^+. Reaction progress upon initiation by enzyme addition was monitored by 295 nm absorbance.

The mark [1] stands for this setting: Homo sapiens, HEK293, HEK293, 2′-deoxy-2′-fluoro-nucleosides and nucleotides.
The mark [2] stands for this setting: MTT 2 hours, chloro-nucleosides.

pEC50, pKi: −log10 of the molar value.

The pEC50 is the negative decadic logarithm of the EC50, by convention in mol/L. `NC(=O)c1ccc[n+]([C@@H]2O[C@H](CO)C(O)C2F)c1` (some centres unmarked) [ara-F-NR, 1-(2′-deoxy-2′-fluoro-arabinofuranosyl)-nicotinamide]: in the data set on HEK293 cells (MTT 1.5 hours), the “100 μM absorbance” value is recorded as 1.5325 and the “500 μM absorbance” value was 1.25. In the data set with HEK293 cells, the “100 μM relative viability” value is 0.6741 and the “500 μM relative viability” value amounted to 0.5499. Besides, the pEC50 with HEK293 cells (setting [1]) is 3.26. The “SirT1 Ki” value at SirT1 is on record as “Ki = high mM”.

As a reminder, the pKi is −log10 of the Ki, conventionally taken in molar units. A higher pKi goes with a small Ki. Turning to `NC(=O)c1ccc[n+]([C@@H]2O[C@H](COP(=O)([O-])O)C(O)C2(F)F)c1` (some centres unmarked) [gem-diF-NMN, 2′-deoxy-2′,2′-difluoro-ribo-nicotinamide mononucleotide], in the data set with HEK293 cells (MTT 1.5 hours), the “100 μM absorbance” value is listed as 1.559 and the “500 μM absorbance” value came to 0. In addition, in the data set with HEK293 cells, the “100 μM relative viability” value is 0.6858 and the “500 μM relative viability” value is 0. Besides, the pEC50 in the data set with HEK293 cells (setting [1]) is 3.93. Besides, on CD38 (at 300 μM), the “CD38 inhibition (in words)” value was “inhibited at 300 μM”. For the same molecule, the pKi at SirT1 is 4.74.

In the case of `NC(=O)c1ccc[n+]([C@@H]2O[C@H](CO)[C@@H](O)C2(F)F)c1` [gem-diF-NR, 1-(2′-deoxy-2′,2′-difluoro-ribofuranosyl)-nicotinamide], in the data set on HEK293 cells (MTT 1.5 hours), the “100 μM absorbance” value was found to be 1.679 and the “500 μM absorbance” value stood at 1.43. In the data set on HEK293 cells, the “100 μM relative viability” value is listed as 0.7386 and the “500 μM relative viability” value worked out at 0.6289. The molecule further had a pEC50 in the data set on HEK293 cells (setting [1]) of 3.07. On SirT1, the “SirT1 inhibition (in words)” value is “no inhibition”.

Take `NC(=O)c1ccc[n+]([C@@H]2O[C@H](COP(=O)([O-])O)C(O)C2F)c1` (some centres unmarked) [ribo-F-NMN, 2′-deoxy-2′-fluoro-ribo-nicotinamide mononucleotide]: in the data set with HEK293 cells (MTT 1.5 hours), the “100 μM absorbance” value turned out to be 1.2275 and the “500 μM absorbance” value was determined as 0.9845. In the data set with HEK293 cells, the “100 μM relative viability” value was found to be 0.54 and the “500 μM relative viability” value is reported as 0.4331. Moreover, the negative logarithm of the EC50 (pEC50) with HEK293 cells (HEK293, 2′-deoxy-2′-fluoro-nucleosides and nucleotides) is 3.62. For the same molecule, the “SirT1 inhibition (in words)” value at SirT1 is “no inhibition”.

For `NC(=O)c1ccc[n+]([C@@H]2O[C@H](CO)C(O)[C@@H]2F)c1` (stereo partly drawn) [ribo-F-NR, 1-(2-deoxy-2-fluoro-D-ribofuranosyl)-nicotinamide], in the data set with HEK293 cells (MTT 1.5 hours), the “100 μM absorbance” value is listed as 0.019 and the “500 μM absorbance” value came out at 0.0015. Further, in the data set with HEK293 cells, the “100 μM relative viability” value turned out to be 0.008358 and the “500 μM relative viability” value is reported as 0.00066. This molecule also had a negative-log EC50 (pEC50) with HEK293 cells (setting [1]) of 4.77. Also, the negative-log Ki (pKi) at SirT1 was 3.70.

With `NC(=O)c1ccc[n+]([C@@H]2O[C@H](CO)C(O)C2Cl)c1` (stereo partly drawn) [β-ara-Cl-NR, 1-(2′-deoxy-2′-chloro-arabinofuranosyl)-nicotinamide], in the data set on HEK293 cells (setting [2]), the “100 μM absorbance” value is listed as 0 and the “500 μM absorbance” value stood at 0. Also, in the data set on HEK293 cells (chloro-nucleosides), the “100 μM relative viability” value was 0 and the “500 μM relative viability” value amounted to 0. In addition, the negative logarithm of the EC50 (pEC50) in the data set with HEK293 cells (Homo sapiens, HEK293, HEK293, 2′-deoxy-2′-chloro-nucleosides) was 5.30. Moreover, on SirT1, the “SirT1 Ki” value is given as “Ki = high mM”.

As for `NC(=O)c1ccc[n+]([C@@H]2O[C@H](CO)C(O)C2(Cl)Cl)c1` (stereo partly drawn) [β-gem-diCl-NR, 1-(2′-deoxy-2′,2′-dichloro-ribofuranosyl)-nicotinamide], in the data set on HEK293 cells (setting [2]), the “100 μM absorbance” value is reported as 2.05 and the “500 μM absorbance” value was found to be 1.63. Besides, in the data set on HEK293 cells (chloro-nucleosides), the “100 μM relative viability” value is on record as 0.8436 and the “500 μM relative viability” value was 0.6708. Besides, in the data set on HEK293 cells (HEK293, at 500 μM), the “kills % of HEK293 cells” value was “kills 30% at 500 μM”. Moreover, the inhibition at 500 µM at CD38 (at 500 μM, read-out: CD38 % inhibited) was 50%. The pKi at SirT1 was 3.11.
